The values that follow are results of earlier work, collected in the CATMoS acute toxicity set (Mansouri et al. 2021).

In general, LD50 refers to the dose expected to kill half of the subjects tested.

“And” between values parts separate entries of the source, which are not always exact repeats. Equal entries are not always repeated.

This data set can be described thus: rat acute oral toxicity. Particulars: in vivo.
`N#CC(F)(F)C(F)(F)C(F)(F)C(F)(F)C#N`: the LD50 was 2920 mg/kg.

In the case of `Cc1ccc(C#N)cc1`, the LD50 was 3800 mg/kg.

Regarding `COC(=O)c1cccc(N=NN(C)C)c1`, the median lethal dose (LD50) was 60 mg/kg.

In the case of `CC(=O)OCC(=O)NCCCOc1cccc(CN2CCCCC2)c1`, the LD50 is 755 mg/kg.

For the molecule `CC(=O)C1OC1(C)C` (centres undefined), the LD50 was 1610 mg/kg.

Turning to `CC(C)C12C=CC(C)(CC1)OO2` (centres undefined), the LD50 was 200 mg/kg.

As to `CN(C)CCCN1c2ccccc2CCc2ccc(Cl)cc21`, the median lethal dose (LD50) was 914 mg/kg and 613 mg/kg.

As to `CCCCOc1ccccc1NC(C)=O`, the 50% lethal dose (LD50) is 2900 mg/kg.

On to `O=C1C(CCS(=O)c2ccccc2)C(=O)N(c2ccccc2)N1c1ccccc1` (centres undefined), for which the LD50 was 358 mg/kg.

In the case of `O=[N+]([O-])c1cncn1CCN1CCOCC1`, the LD50 is 1540 mg/kg.

On to `CC[N+]1(CC)CCC(=C(c2ccccc2)c2ccccc2)C1C` (centres undefined), for which the LD50 is 1090 mg/kg.

Regarding `NC(=O)COc1ccc(Cl)cc1Cl`, the LD50 was 1200 mg/kg.

For the molecule `COCOC`, the 50% lethal dose (LD50) is 6420 mg/kg.

With `CCC(=O)c1ccc(N)cc1`, the median lethal dose (LD50) is 177 mg/kg.

Regarding `CC(C)CC(C)OC(=O)/C=C\C(=O)OC(C)CC(C)C` (centres undefined), the LD50 is 7340 mg/kg.

In the case of `CCN(CC)c1cccc(S(=O)(=O)O)c1`, the 50% lethal dose (LD50) is 7470 mg/kg.

In the case of `O=C(Cl)c1ccc(Oc2ccc(C(=O)Cl)cc2)cc1`, the median lethal dose (LD50) was 8700 mg/kg.

Regarding `N#CCCCCC(=O)O`, the 50% lethal dose (LD50) was 1000 mg/kg.

For the molecule `N#CCCOCCCCOCCC#N`, the LD50 is 4000 mg/kg.

On to `Nc1ccc(S(=O)(=O)c2ccc(N)cc2)cc1`, for which the 50% lethal dose (LD50) is 1000 mg/kg.

As to `CC(CC(c1ccccc1)c1ccccc1)NC(C)(C)C` (centres undefined), the 50% lethal dose (LD50) was 465 mg/kg.

For the molecule `CNCc1cccc2ccccc12`, the LD50 is 50 mg/kg.

As for `O=C(OC1CCC(N2CCCCC2)CC1)C1CCCCC1` (centres undefined), the 50% lethal dose (LD50) is 2500 mg/kg.

In the case of `CC(=O)CCC(=O)O`, the LD50 is 1850 mg/kg.

Consider `C=COCCO`, for which the median lethal dose (LD50) was 3910 mg/kg.

`c1ccc(P(C2CCCCC2)C2CCCCC2)cc1`: the LD50 is 820 mg/kg.

In the case of `Cc1c(F)c(N2CCNC(C)C2)cc2c1c(=O)c(C(=O)O)cn2C1CC1` (centres undefined), the LD50 is 3030 mg/kg.

On to `C1COCCOCCOCCOCCO1`, for which the 50% lethal dose (LD50) was 1410 mg/kg.

For `CC(=O)C1=C(O)[C@@H]2[C@H]3c4c[nH]c5cccc(c45)C[C@H]3C(C)(C)N2C1=O`, the LD50 is 36 mg/kg.

On to `Cc1cccc(CN(C)N=O)c1`, for which the LD50 was 600 mg/kg.

Turning to `CCCCNS(=O)(=O)c1ccccc1`, the median lethal dose (LD50) is 2050 mg/kg.

With `Cc1ccc(OC(=O)c2ccccc2)cc1`, the LD50 is 2640 mg/kg.

On to `CCSC(C)C1(CC)C(=O)NC(=S)NC1=O` (centres undefined), for which the median lethal dose (LD50) is 772 mg/kg.

On to `CCCCCCCCC[N+]1(C)[C@H]2CC(OC(=O)C(CO)c3ccccc3)C[C@H]1[C@H]1O[C@H]12` (some centres undefined), for which the LD50 is 1300 mg/kg.

On to `COc1cccc2c1C(=O)c1c(O)c3c(c(O)c1C2=O)C[C@@](O)(C(C)=O)C[C@@H]3O[C@H]1C[C@H](N)[C@H](O)[C@H](C)O1`, for which the 50% lethal dose (LD50) is 336 mg/kg and 290 mg/kg.

`COP(=O)(OC)C(O)(C(F)F)C(F)F`: the LD50 was 9 mg/kg.

Consider `COC(OC)C(C)c1ccccc1` (centres undefined), for which the 50% lethal dose (LD50) was 1850 mg/kg.

`Cc1c(C(=O)O)nnn1-c1ccccc1`: the median lethal dose (LD50) was 1500 mg/kg.

On to `CN(C(=O)CN(CCO)CC(=O)N(C)C(C)(C)Cc1ccccc1)C(C)(C)Cc1ccccc1`, for which the 50% lethal dose (LD50) was 1000 mg/kg and 675 mg/kg.

For `Cc1cc(C)c(C(=O)Cl)c(C)c1`, the LD50 is 2300 mg/kg.

In the case of `COC(=O)C1=C(C)NC(C)=C(C(=O)OCC(C)=O)C1c1ccccc1[N+](=O)[O-]` (centres undefined), the median lethal dose (LD50) is 1460 mg/kg.

As to `C=COC(=O)c1ccccc1`, the 50% lethal dose (LD50) is 3250 mg/kg.

Consider `OC1CC2CC1C1CC3OC3C21` (centres undefined), for which the LD50 is 3130 mg/kg.

For the molecule `CNC(=O)ON=C1SCCSC1(C)C`, the LD50 is 0.27 mg/kg.

Turning to `CCCCC(O)CC` (centres undefined), the LD50 is 1870 mg/kg.

Turning to `CNC(=O)ON=C1CSC(C)(C)S1`, the LD50 was 2 mg/kg.

On to `CC1=CC(=O)OC1=O`, for which the LD50 is 2600 mg/kg.

Take `OC[C@@H](O)[C@@H](O[C@@H]1O[C@H](CO)[C@H](O)[C@H](O)[C@H]1O)[C@H](O)[C@@H](O)CO`: the 50% lethal dose (LD50) was 30000 mg/kg and 27500 mg/kg.

Regarding `CSN(C)C(=O)Oc1cccc2c1OC(C)(C)C2`, the LD50 was 5 mg/kg.
